One test concerns the target T1, hCaSR (Homo sapiens, UniProt P41180).
T1 construct: expressed in transfected cells; host or cells: HEK293/natClytin (transient, pcDNA6 as delivered by GeneArt)
T1 sequence (P41180 20-1078): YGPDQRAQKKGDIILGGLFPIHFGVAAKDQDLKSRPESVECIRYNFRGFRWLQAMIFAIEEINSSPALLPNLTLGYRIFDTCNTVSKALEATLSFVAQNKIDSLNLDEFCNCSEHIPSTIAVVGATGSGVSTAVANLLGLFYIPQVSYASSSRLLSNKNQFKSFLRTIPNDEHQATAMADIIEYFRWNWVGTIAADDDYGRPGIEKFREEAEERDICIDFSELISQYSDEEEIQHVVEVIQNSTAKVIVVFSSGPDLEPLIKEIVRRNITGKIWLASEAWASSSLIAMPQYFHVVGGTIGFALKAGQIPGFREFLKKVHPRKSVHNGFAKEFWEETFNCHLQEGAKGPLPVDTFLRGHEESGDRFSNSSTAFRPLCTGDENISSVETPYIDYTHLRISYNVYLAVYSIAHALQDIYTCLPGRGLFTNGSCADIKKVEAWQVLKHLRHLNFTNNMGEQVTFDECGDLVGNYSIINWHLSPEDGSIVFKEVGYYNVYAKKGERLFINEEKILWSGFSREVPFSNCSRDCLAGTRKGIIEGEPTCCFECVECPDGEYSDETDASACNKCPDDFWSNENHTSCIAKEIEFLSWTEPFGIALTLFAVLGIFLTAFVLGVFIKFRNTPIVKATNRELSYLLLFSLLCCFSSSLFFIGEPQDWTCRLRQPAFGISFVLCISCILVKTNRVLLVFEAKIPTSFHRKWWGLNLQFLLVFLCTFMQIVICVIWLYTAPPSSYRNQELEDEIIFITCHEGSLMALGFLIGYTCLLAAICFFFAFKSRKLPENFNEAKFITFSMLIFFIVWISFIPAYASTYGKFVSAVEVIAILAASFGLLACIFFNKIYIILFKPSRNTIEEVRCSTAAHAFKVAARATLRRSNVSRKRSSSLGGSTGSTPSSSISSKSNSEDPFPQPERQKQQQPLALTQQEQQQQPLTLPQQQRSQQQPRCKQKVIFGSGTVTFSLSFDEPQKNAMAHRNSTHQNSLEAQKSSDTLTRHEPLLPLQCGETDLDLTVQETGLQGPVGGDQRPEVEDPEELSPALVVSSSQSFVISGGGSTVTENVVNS
As to the kind of experiment: hCaSR transiently expressed in HEK293/natClytin, agonist luminescence assay. To be noted: transiently expressed hCaSR; > 3 mM = maximal response not reached; read-out: hCaSR EC50. Format: cell-based. On the procedure: (§1) The coding sequence of the Felis catus[52] and Homo sapiens[53] CaSR gene was synthesised by GeneArt (Thermo Fisher Scientific). The cat coding sequence was excised from the GeneArt construct and inserted in pcDNA3.1 for constitutive and transient expression or pcDNA5/ TO for inducible expression. For the human sequence the pcDNA6 vector as delivered by GeneArt was used without further sub-cloning.
(§2) All transient transfections were performed with Lipofectamine 2000 (Invitrogen) according to the manufacturer’s protocol.

The next test addresses T2, cCaSR (Felis catus, UniProt C7FF08).
T2 sequence (C7FF08 1-1081): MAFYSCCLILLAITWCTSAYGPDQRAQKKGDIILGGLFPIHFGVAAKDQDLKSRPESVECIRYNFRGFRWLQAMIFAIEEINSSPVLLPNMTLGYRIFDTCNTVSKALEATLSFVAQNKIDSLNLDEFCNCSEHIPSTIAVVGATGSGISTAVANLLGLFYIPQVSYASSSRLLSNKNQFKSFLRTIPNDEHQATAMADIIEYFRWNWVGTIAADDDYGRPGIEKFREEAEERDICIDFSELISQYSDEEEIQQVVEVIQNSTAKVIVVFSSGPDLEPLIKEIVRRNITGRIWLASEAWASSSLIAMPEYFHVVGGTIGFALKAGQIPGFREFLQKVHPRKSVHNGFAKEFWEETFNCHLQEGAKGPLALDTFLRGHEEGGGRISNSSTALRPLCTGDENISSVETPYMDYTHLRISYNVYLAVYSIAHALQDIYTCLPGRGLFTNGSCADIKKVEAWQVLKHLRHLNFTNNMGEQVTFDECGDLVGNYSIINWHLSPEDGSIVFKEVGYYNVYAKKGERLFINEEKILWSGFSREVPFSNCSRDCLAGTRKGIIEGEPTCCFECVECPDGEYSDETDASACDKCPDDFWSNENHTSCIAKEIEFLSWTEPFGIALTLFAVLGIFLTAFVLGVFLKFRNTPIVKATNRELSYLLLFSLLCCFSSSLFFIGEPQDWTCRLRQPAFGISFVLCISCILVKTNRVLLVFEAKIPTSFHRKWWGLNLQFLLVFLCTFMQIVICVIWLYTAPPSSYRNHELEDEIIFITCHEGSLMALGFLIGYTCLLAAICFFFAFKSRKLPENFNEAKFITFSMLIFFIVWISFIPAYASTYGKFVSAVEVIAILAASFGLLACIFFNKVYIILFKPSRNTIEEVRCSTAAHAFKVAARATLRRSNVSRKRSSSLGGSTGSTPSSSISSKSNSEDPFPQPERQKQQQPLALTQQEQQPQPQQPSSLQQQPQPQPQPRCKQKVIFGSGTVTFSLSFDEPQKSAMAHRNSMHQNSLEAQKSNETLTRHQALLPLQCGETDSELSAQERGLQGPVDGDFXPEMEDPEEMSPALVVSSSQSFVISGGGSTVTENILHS
Description: cCaSR transiently expressed in HEK293/natClytin, agonist luminescence assay. Format: cell-based. Particulars: transiently expressed cCaSR; > 3 mM = maximal response not reached; read-out: cCaSR EC50. Here is the method: as §1, §2

By EC50 is commonly meant the concentration needed to bring the measured effect to its halfway point. In the case of `N[C@@H](CCC(=O)N[C@@H](CS)C(=O)NCC(=O)O)C(=O)O` [Glutathione], the EC50 at hCaSR and at cCaSR was over 3 mM in each case.

As for `[Ca+2].[Cl-].[Cl-]` [Ca^2+, CaCl2], the EC50 came to 0.8 mM on hCaSR and 1.15 mM on cCaSR.

In the case of `[Cl-].[Cl-].[Mg+2]` [Mg^2+, MgCl2], the values for the concentration giving a half-maximal response (EC50) at hCaSR and on cCaSR were 3.9 mM and 8.6 mM, respectively.
